Experimental data reported in publication PMC6591251, “Discovery of potent necroptosis inhibitors targeting RIPK1 kinase activity for the treatment of inflammatory disorder and cancer metastasis” (Cell Death & Disease, 2019).

Key:
Assay in all cases: RBC kinase panel
Format in all cases: biochemical
Details in all cases: ATP 10 μM, Data1, Data2
YSK4/MAP3K19 = target: T1, YSK4/MAP3K19 (Homo sapiens, UniProt Q56UN5)
T1 construct: purchased Reaction Biology Corporation
Summary of the method: (§1)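 Using 10 μM ATP for every kinase, activity of 369 human kinases was measured in duplicate in the presence of 1 μM test compound.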

PAK6 = target: T2, PAK6 (Homo sapiens, UniProt Q9NQU5)
T2 construct: purchased Reaction Biology Corporation
Summary of the method: as §1

FLT3 = target: T3, FLT3 (Homo sapiens, UniProt P36888)
T3 construct: purchased Reaction Biology Corporation
Summary of the method: as §1

EPHB2 = target: T4, EPHB2 (Homo sapiens, UniProt P29323)
T4 construct: purchased Reaction Biology Corporation
T4 sequence (P29323 19-1055): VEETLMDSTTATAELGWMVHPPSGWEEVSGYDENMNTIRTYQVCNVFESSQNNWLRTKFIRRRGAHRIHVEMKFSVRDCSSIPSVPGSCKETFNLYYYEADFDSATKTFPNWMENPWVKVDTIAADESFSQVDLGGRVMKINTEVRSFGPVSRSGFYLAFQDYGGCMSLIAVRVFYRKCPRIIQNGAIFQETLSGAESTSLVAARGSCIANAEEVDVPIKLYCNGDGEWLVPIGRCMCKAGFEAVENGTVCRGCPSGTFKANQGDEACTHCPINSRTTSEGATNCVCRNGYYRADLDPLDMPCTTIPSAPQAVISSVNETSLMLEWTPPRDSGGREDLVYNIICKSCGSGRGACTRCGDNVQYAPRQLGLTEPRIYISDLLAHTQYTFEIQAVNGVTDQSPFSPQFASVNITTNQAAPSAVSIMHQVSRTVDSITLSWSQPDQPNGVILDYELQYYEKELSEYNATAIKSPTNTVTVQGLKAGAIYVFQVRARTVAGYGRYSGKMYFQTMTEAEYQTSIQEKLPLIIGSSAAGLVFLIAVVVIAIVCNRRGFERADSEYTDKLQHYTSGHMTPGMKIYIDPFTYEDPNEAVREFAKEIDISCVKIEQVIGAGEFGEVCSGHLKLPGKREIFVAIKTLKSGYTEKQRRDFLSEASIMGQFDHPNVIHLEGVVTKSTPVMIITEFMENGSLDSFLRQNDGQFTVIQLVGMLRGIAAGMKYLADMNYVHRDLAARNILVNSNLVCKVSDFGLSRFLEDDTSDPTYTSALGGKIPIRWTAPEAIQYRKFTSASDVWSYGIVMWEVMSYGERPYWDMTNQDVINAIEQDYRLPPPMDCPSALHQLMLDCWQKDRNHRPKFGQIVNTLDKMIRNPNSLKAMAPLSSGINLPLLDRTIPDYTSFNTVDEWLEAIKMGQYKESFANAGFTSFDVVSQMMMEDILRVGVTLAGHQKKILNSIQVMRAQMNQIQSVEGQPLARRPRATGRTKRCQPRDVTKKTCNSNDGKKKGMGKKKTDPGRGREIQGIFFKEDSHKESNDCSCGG
Summary of the method: as §1

MELK = target: T5, MELK (Homo sapiens, UniProt Q14680)
T5 construct: purchased Reaction Biology Corporation
Summary of the method: as §1

TYK1/LTK = target: T6, TYK1/LTK (Homo sapiens, UniProt P29376)
T6 construct: purchased Reaction Biology Corporation
Summary of the method: as §1

PKG1a = target: T7, PKG1a (Homo sapiens, UniProt Q13976)
T7 construct: purchased Reaction Biology Corporation
Summary of the method: as §1

MRCKa/CDC42BPA = target: T8, MRCKa/CDC42BPA (Homo sapiens, UniProt Q5VT25)
T8 construct: purchased Reaction Biology Corporation
Summary of the method: as §1

CAMK1a = target: T9, CAMK1a (Homo sapiens, UniProt Q14012)
T9 construct: purchased Reaction Biology Corporation
Summary of the method: as §1

GRK3 = target: T10, GRK3 (Homo sapiens, UniProt P35626)
T10 construct: purchased Reaction Biology Corporation
Summary of the method: as §1

CLK1 = target: T11, CLK1 (Homo sapiens, UniProt P49759)
T11 construct: purchased Reaction Biology Corporation
Summary of the method: as §1

LOK/STK10 = target: T12, LOK/STK10 (Homo sapiens, UniProt O94804)
T12 construct: purchased Reaction Biology Corporation
Summary of the method: as §1

P38d/MAPK13 = target: T13, P38d/MAPK13 (Homo sapiens, UniProt O15264)
T13 construct: purchased Reaction Biology Corporation
T13 sequence (O15264 whole entry): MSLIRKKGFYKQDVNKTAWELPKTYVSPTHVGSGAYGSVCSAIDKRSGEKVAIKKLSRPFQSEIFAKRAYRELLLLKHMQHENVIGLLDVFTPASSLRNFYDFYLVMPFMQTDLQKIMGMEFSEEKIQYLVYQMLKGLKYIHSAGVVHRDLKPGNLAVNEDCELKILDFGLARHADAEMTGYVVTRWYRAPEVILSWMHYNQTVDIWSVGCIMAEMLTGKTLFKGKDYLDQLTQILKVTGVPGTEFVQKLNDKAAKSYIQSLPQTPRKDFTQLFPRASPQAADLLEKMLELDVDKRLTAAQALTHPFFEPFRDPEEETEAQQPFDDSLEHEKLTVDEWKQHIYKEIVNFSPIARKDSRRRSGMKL
Summary of the method: as §1

FGFR4 = target: T14, FGFR4 (Homo sapiens, UniProt P22455)
T14 construct: purchased Reaction Biology Corporation
Summary of the method: as §1

MYO3b = target: T15, MYO3b (Homo sapiens, UniProt Q8WXR4)
T15 construct: purchased Reaction Biology Corporation
Summary of the method: as §1

KDR/VEGFR2 = target: T16, KDR/VEGFR2 (Homo sapiens, UniProt P35968)
T16 construct: purchased Reaction Biology Corporation
Summary of the method: as §1

SGK2 = target: T17, SGK2 (Homo sapiens, UniProt Q9HBY8)
T17 construct: purchased Reaction Biology Corporation
Summary of the method: as §1

GRK1 = target: T18, GRK1 (Homo sapiens, UniProt Q15835)
T18 construct: purchased Reaction Biology Corporation
Summary of the method: as §1

MINK/MINK1 = target: T19, MINK/MINK1 (Homo sapiens, UniProt Q8N4C8)
T19 construct: purchased Reaction Biology Corporation
T19 sequence (Q8N4C8 whole entry): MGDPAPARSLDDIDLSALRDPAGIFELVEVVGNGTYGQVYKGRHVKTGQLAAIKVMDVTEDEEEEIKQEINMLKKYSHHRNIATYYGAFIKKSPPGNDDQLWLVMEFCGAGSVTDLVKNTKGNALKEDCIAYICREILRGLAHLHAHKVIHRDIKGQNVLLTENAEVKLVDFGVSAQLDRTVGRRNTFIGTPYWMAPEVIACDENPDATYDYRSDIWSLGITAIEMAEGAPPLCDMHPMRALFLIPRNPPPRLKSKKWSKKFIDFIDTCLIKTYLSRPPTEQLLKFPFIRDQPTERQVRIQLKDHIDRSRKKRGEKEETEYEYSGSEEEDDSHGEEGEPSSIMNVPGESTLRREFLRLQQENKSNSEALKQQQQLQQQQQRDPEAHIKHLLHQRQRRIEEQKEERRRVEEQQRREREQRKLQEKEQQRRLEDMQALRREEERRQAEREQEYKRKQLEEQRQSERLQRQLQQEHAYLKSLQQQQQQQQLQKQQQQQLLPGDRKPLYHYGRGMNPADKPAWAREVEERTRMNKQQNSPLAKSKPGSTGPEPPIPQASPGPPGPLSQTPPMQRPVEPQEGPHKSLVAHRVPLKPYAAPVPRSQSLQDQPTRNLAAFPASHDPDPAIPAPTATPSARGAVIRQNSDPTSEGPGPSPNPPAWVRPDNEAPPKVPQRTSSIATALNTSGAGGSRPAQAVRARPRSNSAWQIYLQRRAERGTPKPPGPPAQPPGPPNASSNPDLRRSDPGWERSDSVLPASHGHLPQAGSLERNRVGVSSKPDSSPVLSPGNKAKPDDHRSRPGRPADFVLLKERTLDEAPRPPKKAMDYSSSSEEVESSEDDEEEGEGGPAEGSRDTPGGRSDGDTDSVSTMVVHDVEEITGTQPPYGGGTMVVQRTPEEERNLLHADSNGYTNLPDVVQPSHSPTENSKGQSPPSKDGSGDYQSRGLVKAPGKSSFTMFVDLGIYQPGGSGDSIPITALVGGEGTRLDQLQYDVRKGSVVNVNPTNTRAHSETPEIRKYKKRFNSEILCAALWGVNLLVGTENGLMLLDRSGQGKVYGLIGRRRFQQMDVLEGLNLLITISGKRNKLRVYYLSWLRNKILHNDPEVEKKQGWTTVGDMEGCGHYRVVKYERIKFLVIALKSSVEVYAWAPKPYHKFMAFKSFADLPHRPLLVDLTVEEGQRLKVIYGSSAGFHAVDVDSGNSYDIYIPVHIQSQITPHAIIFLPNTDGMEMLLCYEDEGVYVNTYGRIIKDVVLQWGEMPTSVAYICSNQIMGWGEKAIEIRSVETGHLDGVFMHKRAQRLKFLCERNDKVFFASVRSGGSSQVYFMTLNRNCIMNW
Summary of the method: as §1

MEK5 = target: T20, MEK5 (Homo sapiens, UniProt Q13163)
T20 construct: purchased Reaction Biology Corporation
Summary of the method: as §1

HPK1/MAP4K1 = target: T21, HPK1/MAP4K1 (Homo sapiens, UniProt Q92918)
T21 construct: purchased Reaction Biology Corporation
Summary of the method: as §1

FAK/PTK2 = target: T22, FAK/PTK2 (Homo sapiens, UniProt Q05397)
T22 construct: purchased Reaction Biology Corporation
Summary of the method: as §1

RIPK4 = target: T23, RIPK4 (Homo sapiens, UniProt P57078)
T23 construct: purchased Reaction Biology Corporation
Summary of the method: as §1

RSK1 = target: T24, RSK1 (Homo sapiens, UniProt Q15418)
T24 construct: purchased Reaction Biology Corporation
Summary of the method: as §1

CK1g1 = target: T25, CK1g1 (Homo sapiens, UniProt Q9HCP0)
T25 construct: purchased Reaction Biology Corporation
Summary of the method: as §1

EPHB4 = target: T26, EPHB4 (Homo sapiens, UniProt P54760)
T26 construct: purchased Reaction Biology Corporation
Summary of the method: as §1

WNK3 = target: T27, WNK3 (Homo sapiens, UniProt Q9BYP7)
T27 construct: purchased Reaction Biology Corporation
Summary of the method: as §1

FLT1/VEGFR1 = target: T28, FLT1/VEGFR1 (Homo sapiens, UniProt P17948)
T28 construct: purchased Reaction Biology Corporation
T28 sequence (P17948 27-1338): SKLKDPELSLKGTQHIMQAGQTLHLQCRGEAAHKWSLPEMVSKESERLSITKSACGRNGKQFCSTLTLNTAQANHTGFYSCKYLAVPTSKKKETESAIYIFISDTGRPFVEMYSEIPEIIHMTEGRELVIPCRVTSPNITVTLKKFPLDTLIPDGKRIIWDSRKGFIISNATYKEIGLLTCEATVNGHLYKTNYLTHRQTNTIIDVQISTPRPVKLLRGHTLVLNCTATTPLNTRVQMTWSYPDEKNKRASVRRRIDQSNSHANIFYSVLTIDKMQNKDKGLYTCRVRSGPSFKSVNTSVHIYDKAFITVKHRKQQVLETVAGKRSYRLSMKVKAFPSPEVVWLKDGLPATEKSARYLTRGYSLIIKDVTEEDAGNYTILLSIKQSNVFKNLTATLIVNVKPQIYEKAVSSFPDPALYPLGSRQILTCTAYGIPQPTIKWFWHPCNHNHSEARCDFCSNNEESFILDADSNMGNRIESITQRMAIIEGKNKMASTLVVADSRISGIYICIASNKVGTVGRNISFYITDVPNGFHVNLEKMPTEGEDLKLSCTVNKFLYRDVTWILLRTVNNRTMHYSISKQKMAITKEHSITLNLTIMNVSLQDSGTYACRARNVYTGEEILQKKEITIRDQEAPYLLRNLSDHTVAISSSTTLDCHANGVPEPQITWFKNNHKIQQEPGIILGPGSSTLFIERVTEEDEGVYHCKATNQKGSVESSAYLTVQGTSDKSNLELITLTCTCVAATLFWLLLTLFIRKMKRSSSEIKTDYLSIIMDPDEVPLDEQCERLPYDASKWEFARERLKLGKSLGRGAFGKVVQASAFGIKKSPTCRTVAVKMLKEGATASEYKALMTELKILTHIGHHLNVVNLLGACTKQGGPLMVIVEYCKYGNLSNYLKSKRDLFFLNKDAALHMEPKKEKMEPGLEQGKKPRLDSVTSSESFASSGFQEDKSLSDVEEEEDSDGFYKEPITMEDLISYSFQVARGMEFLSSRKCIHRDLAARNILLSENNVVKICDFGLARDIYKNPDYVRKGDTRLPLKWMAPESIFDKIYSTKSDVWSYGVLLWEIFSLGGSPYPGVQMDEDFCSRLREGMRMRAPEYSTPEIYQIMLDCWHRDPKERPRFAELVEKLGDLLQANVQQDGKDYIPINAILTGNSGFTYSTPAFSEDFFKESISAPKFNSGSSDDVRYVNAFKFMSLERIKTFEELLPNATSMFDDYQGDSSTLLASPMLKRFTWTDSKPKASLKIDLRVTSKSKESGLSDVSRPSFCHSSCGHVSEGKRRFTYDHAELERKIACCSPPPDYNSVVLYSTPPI
Summary of the method: as §1

GLK/MAP4K3 = target: T29, GLK/MAP4K3 (Homo sapiens, UniProt Q8IVH8)
T29 construct: purchased Reaction Biology Corporation
Summary of the method: as §1

PDK1/PDPK1 = target: T30, PDK1/PDPK1 (Homo sapiens, UniProt O15530)
T30 construct: purchased Reaction Biology Corporation
T30 sequence (O15530 whole entry): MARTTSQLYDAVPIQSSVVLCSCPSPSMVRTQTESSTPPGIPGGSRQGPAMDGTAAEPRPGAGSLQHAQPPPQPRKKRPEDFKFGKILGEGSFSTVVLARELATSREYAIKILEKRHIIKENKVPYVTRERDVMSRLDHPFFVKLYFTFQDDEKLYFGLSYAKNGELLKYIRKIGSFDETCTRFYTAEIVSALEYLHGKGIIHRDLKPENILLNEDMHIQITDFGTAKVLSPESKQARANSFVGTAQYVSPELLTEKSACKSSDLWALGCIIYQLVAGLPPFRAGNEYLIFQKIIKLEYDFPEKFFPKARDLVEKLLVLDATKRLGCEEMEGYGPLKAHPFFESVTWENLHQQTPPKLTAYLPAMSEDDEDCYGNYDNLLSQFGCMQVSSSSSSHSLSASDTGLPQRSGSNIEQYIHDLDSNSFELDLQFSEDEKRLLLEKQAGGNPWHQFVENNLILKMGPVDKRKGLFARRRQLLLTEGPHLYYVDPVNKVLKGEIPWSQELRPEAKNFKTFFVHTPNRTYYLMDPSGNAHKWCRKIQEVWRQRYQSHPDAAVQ
Summary of the method: as §1

p70S6Kb/RPS6KB2 = target: T31, p70S6Kb/RPS6KB2 (Homo sapiens, UniProt Q9UBS0)
T31 construct: purchased Reaction Biology Corporation
T31 sequence (Q9UBS0 whole entry): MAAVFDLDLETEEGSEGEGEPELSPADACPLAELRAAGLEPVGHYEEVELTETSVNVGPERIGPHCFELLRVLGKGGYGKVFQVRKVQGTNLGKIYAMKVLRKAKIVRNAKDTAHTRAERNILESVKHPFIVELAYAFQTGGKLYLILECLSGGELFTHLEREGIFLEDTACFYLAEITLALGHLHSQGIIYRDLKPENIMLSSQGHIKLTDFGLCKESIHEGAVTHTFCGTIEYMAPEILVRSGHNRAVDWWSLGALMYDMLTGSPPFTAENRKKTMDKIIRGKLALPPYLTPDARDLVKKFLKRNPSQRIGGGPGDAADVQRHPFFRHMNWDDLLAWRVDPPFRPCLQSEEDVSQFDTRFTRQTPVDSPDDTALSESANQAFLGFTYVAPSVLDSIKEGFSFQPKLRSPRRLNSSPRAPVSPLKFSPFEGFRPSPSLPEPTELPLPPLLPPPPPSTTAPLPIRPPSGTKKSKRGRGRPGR
Summary of the method: as §1

ULK1 = target: T32, ULK1 (Homo sapiens, UniProt O75385)
T32 construct: purchased Reaction Biology Corporation
Summary of the method: as §1

IKKa/CHUK = target: T33, IKKa/CHUK (Homo sapiens, UniProt O15111)
T33 construct: purchased Reaction Biology Corporation
Summary of the method: as §1

CC(=O)Nc1nc2ccc(-c3cnc(C)c(NC(=O)OC4CCCCC4)c3)cc2s1 [PK68, cyclohexyl (5-(2-acetamidobenzo[d]thiazol-6-yl)-2-methylpyridin-3-yl)carbamate]
Activity% (YSK4/MAP3K19; 1 μM): 94.66%
activity at 1 µM (YSK4/MAP3K19): 95%
Activity% (PAK6; 1 μM): 92.62%
activity at 1 µM (PAK6): 93.6%
Activity% (FLT3; 1 μM): 57.70%
activity at 1 µM (FLT3): 58%
Activity% (EPHB2; 1 μM): 101.30%
activity at 1 µM (EPHB2): 102%
Activity% (MELK; 1 μM): 100.40%
activity at 1 µM (MELK): 102%
Activity% (TYK1/LTK; 1 μM): 98.39%
activity at 1 µM (TYK1/LTK): 99.8%
Activity% (PKG1a; 1 μM): 90.22%
activity at 1 µM (PKG1a): 90.3%
Activity% (MRCKa/CDC42BPA; 1 μM): 101.41%
activity at 1 µM (MRCKa/CDC42BPA): 104%
Activity% (CAMK1a; 1 μM): 98.23%
activity at 1 µM (CAMK1a): 98.6%
Activity% (GRK3; 1 μM): 102.09%
activity at 1 µM (GRK3): 103%
Activity% (CLK1; 1 μM): 80.72%
activity at 1 µM (CLK1): 81.9%
Activity% (LOK/STK10; 1 μM): 97.50%
activity at 1 µM (LOK/STK10): 97.9%
Activity% (P38d/MAPK13; 1 μM): 95.45%
activity at 1 µM (P38d/MAPK13): 95.8%
Activity% (FGFR4; 1 μM): 89.46%
activity at 1 µM (FGFR4): 89.9%
Activity% (MYO3b; 1 μM): 99.36%
activity at 1 µM (MYO3b): 99.9%
Activity% (KDR/VEGFR2; 1 μM): 88.68%
activity at 1 µM (KDR/VEGFR2): 90.3%
Activity% (SGK2; 1 μM): 99.97%
activity at 1 µM (SGK2): 101%
Activity% (GRK1; 1 μM): 99.42%
activity at 1 µM (GRK1): 100%
Activity% (MINK/MINK1; 1 μM): 88.92%
activity at 1 µM (MINK/MINK1): 90.2%
Activity% (MEK5; 1 μM): 97.06%
activity at 1 µM (MEK5): 97.5%
Activity% (HPK1/MAP4K1; 1 μM): 98.32%
activity at 1 µM (HPK1/MAP4K1): 101%
Activity% (FAK/PTK2; 1 μM): 96.95%
activity at 1 µM (FAK/PTK2): 98%
Activity% (RIPK4; 1 μM): 92.60%
activity at 1 µM (RIPK4): 94.5%
Activity% (RSK1; 1 μM): 98.15%
activity at 1 µM (RSK1): 100%
Activity% (CK1g1; 1 μM): 89.50%
activity at 1 µM (CK1g1): 90.7%
Activity% (EPHB4; 1 μM): 99.18%
activity at 1 µM (EPHB4): 101%
Activity% (WNK3; 1 μM): 106.32%
activity at 1 µM (WNK3): 107%
Activity% (FLT1/VEGFR1; 1 μM): 100.00%
activity at 1 µM (FLT1/VEGFR1): 100%
Activity% (GLK/MAP4K3; 1 μM): 102.14%
activity at 1 µM (GLK/MAP4K3): 104%
Activity% (PDK1/PDPK1; 1 μM): 90.43%
activity at 1 µM (PDK1/PDPK1): 92.7%
Activity% (p70S6Kb/RPS6KB2; 1 μM): 95.50%
activity at 1 µM (p70S6Kb/RPS6KB2): 98.8%
Activity% (ULK1; 1 μM): 100.13%
activity at 1 µM (ULK1): 105%
Activity% (IKKa/CHUK; 1 μM): 107.86%
activity at 1 µM (IKKa/CHUK): 117%
